Measured values reported in ChEMBL document CHEMBL1201862, “PubChem BioAssay data set” (2004).
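These data come from cells grown in 96-well plates and exposed to compound for 48 hours at five concentrations. Abbreviation: GI50, concentration required for 50% inhibition of growth.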 Activity calls are given as the source filed them. Cut-off read from the data, not from the text of the source: active = GI50 up to about 1.1 µM and inactive = higher.

How the values were obtained:
Assay in all cases: NCI anticancer screen, dose series, 48 h
[1] = test system: 786-0
[2] = test system: EKVX
[3] = test system: HCT-15
[4] = test system: HT-29
[5] = test system: K562
[6] = test system: NCI-H226
[7] = test system: NCI-H522
[8] = test system: OVCAR-3
[9] = test system: OVCAR-5
[10] = test system: RPMI-8226
[11] = test system: SK-MEL-28
[12] = test system: SK-OV-3
[13] = test system: SW-620
[14] = test system: UACC-62
[15] = test system: XF498
[16] = test system: DU-145
[17] = test system: MCF7
[18] = test system: MDA-MB-231
[19] = test system: OVCAR-4
[20] = test system: SF-268

SMILES | GI50 [1] | GI50 [2] | GI50 [3] [µM] | GI50 [4] | GI50 [5] | GI50 [6] | GI50 [7] | GI50 [8] | GI50 [9] | GI50 [10] | GI50 [11] | GI50 [12] | GI50 [13] | GI50 [14] | GI50 [15] | GI50 [16] | GI50 [17] | GI50 [18] | GI50 [19] | GI50 [20]
C=C(N=[N+]=[N-])c1cn(C2CC(O)C(CO)O2)c(=O)[nH]c1=O (centres undefined) | > 100 µM (inactive) | > 100 µM (inactive) | > 100 | > 100 µM (inactive) | > 100 µM (inactive) | > 100 µM (inactive) | > 100 µM (inactive) | > 100 µM (inactive) | > 100 µM (inactive) | > 100 µM (inactive) | > 100 µM (inactive) | > 100 µM (inactive) | > 100 µM (inactive) | > 100 µM (inactive) | > 100 µM (inactive) |  |  |  |  | 
N=C(Nc1nc(-c2ccccn2)cc2ccccc12)c1ccccn1 | 0.0317 µM (active) | 0.0221 µM (active) | 0.0149 | 0.01 µM (active) | 0.0108 µM (active) | 0.106 µM (active) | 0.0398 µM (active) | 0.01 µM (active) | 0.0148 µM (active) | 0.00201 µM (active) | 0.252 µM (active) | 0.0308 µM (active) | 0.0182 µM (active) | 0.0336 µM (active) | 0.00407 µM (active) | 0.0673 µM (active) | 0.0106 µM (active) | < 0.0179 µM (active) | < 0.0561 µM (active) | 0.065 µM (active)
COc1ccc(Cc2c3cc(OC)c(OC)cc3cc[n+]2C)cc1 | > 23.8 µM (inactive) | > 39 µM (inactive) | > 31.3 | 13.4 µM (inactive) | 34.4 µM (inactive) | 33.1 µM (inactive) | 19.9 µM (inactive) | 7.28 µM (inactive) | > 100 µM (inactive) | 24.5 µM (inactive) | 32.6 µM (inactive) |  | > 100 µM (inactive) | 18.9 µM (inactive) | 4.99 µM (inactive) |  |  |  | 19.8 µM (inactive) | 4.7 µM (inactive)
Cc1c(/C=N/N(C)C)oc2c1cc(O)c1ncccc12 | 6.28 µM (inactive) | 2.11 µM (inactive) | 2.31 | 41.2 µM (inactive) | 3.86 µM (inactive) | 13.2 µM (inactive) | 2.38 µM (inactive) | 2.66 µM (inactive) | 7.24 µM (inactive) | 5.05 µM (inactive) | 22.5 µM (inactive) | 6.87 µM (inactive) | 4.61 µM (inactive) | 13.8 µM (inactive) | 8.38 µM (inactive) |  |  |  | 4.75 µM (inactive) | 4.01 µM (inactive)
C/C(CCn1[nH]c(=O)ccc1=O)=N\NC(=O)C(=O)NN | > 100 µM (inactive) | > 100 µM (inactive) | > 100 | > 100 µM (inactive) | > 100 µM (inactive) | > 100 µM (inactive) | > 100 µM (inactive) | > 100 µM (inactive) | > 100 µM (inactive) | > 100 µM (inactive) | > 100 µM (inactive) | > 100 µM (inactive) | > 100 µM (inactive) | > 100 µM (inactive) | > 100 µM (inactive) |  |  |  | > 100 µM (inactive) | > 100 µM (inactive)
Cc1cccc(C(=O)c2cccc3ccccc23)c1C(=O)O | > 100 µM (inactive) | > 100 µM (inactive) | > 100 | > 100 µM (inactive) | > 100 µM (inactive) | > 100 µM (inactive) | > 100 µM (inactive) | > 100 µM (inactive) | > 100 µM (inactive) | > 100 µM (inactive) | > 100 µM (inactive) | 39.1 µM (inactive) | > 100 µM (inactive) | > 100 µM (inactive) | > 100 µM (inactive) |  |  |  | > 100 µM (inactive) | > 100 µM (inactive)
O=[N+]([O-])c1ccc(COc2cccc3cccnc23)cc1 | 17.2 µM (inactive) | 18.9 µM (inactive) | 7.1 | 31.6 µM (inactive) | 11.3 µM (inactive) | 18.7 µM (inactive) | 4.53 µM (inactive) | 5.94 µM (inactive) | 38.5 µM (inactive) | 13 µM (inactive) | 14.8 µM (inactive) | 32.3 µM (inactive) |  | 17.3 µM (inactive) | 19.9 µM (inactive) |  |  |  | 12.4 µM (inactive) | 19.9 µM (inactive)
CCC(C)CN1C(=O)NC(Cc2ccccc2)C1=O (centres undefined) |  | > 100 µM (inactive) |  | > 100 µM (inactive) |  | > 100 µM (inactive) | > 100 µM (inactive) |  | > 100 µM (inactive) |  | > 100 µM (inactive) |  | > 100 µM (inactive) |  | > 100 µM (inactive) |  |  |  |  | > 100 µM (inactive)
Nc1nc(N)c2nc(-c3ccco3)cnc2n1 | 27.1 µM (inactive) | 18.3 µM (inactive) | > 100 | 76.7 µM (inactive) | 33.7 µM (inactive) | > 100 µM (inactive) | 50.2 µM (inactive) | 56.9 µM (inactive) | > 100 µM (inactive) | > 100 µM (inactive) | 92 µM (inactive) | 76.9 µM (inactive) |  | 22.4 µM (inactive) | > 100 µM (inactive) |  |  |  |  | > 100 µM (inactive)
O=C(O)[C@@H](NS(=O)(=O)c1ccc(F)cc1)c1ccccc1 | > 100 µM (inactive) | > 100 µM (inactive) | > 100 | > 100 µM (inactive) | > 100 µM (inactive) | > 100 µM (inactive) | > 100 µM (inactive) | > 100 µM (inactive) | > 100 µM (inactive) | > 100 µM (inactive) | > 100 µM (inactive) | > 100 µM (inactive) | > 100 µM (inactive) | > 100 µM (inactive) | > 100 µM (inactive) |  |  |  | > 100 µM (inactive) | > 100 µM (inactive)
COC(=O)[C@H]1N[C@@H](C(=O)OC)C23CCC[C@H]2CC[C@]1(C(OC)OC)C3 | 81.1 µM (inactive) | > 100 µM (inactive) | > 100 | > 100 µM (inactive) | 73.6 µM (inactive) | > 100 µM (inactive) | > 100 µM (inactive) |  | > 100 µM (inactive) | > 100 µM (inactive) | > 100 µM (inactive) | > 100 µM (inactive) | 56.2 µM (inactive) | > 100 µM (inactive) | > 100 µM (inactive) |  |  |  | > 100 µM (inactive) | > 100 µM (inactive)
CCOC(=O)C(=O)NCCCN1CCOCC1 |  | > 100 µM (inactive) | > 100 | > 100 µM (inactive) | > 100 µM (inactive) | > 100 µM (inactive) | > 100 µM (inactive) | > 100 µM (inactive) | > 100 µM (inactive) |  | > 100 µM (inactive) | > 100 µM (inactive) | > 100 µM (inactive) | > 100 µM (inactive) | > 100 µM (inactive) |  |  |  | > 100 µM (inactive) | > 100 µM (inactive)
C=C=CC(NC(=O)c1ccccc1)(C(=O)O)C(F)(F)F (centres undefined) |  | > 100 µM (inactive) | > 100 | > 100 µM (inactive) | > 100 µM (inactive) | > 100 µM (inactive) |  |  | > 100 µM (inactive) | > 100 µM (inactive) | > 100 µM (inactive) |  | > 100 µM (inactive) |  | > 100 µM (inactive) |  |  |  | > 10 µM (inactive) | > 100 µM (inactive)
Nc1ncnc2c1ncn2C1CCC(CO)O1 (centres undefined) |  | > 87.3 µM (inactive) | > 100 | > 61.1 µM (inactive) | > 100 µM (inactive) | > 67.9 µM (inactive) | > 100 µM (inactive) | > 100 µM (inactive) | > 100 µM (inactive) | > 100 µM (inactive) | > 63.2 µM (inactive) | > 77.6 µM (inactive) | > 100 µM (inactive) | > 100 µM (inactive) | > 90.8 µM (inactive) |  | > 100 µM (inactive) |  | > 82.8 µM (inactive) | > 60.5 µM (inactive)
COc1ccc(/C=C/c2cc(OC)c(OCc3ccccc3)c(OC)c2)cc1 | > 100 µM (inactive) | > 100 µM (inactive) |  | 27.9 µM (inactive) | > 100 µM (inactive) | > 100 µM (inactive) | > 100 µM (inactive) | > 100 µM (inactive) | 8.99 µM (inactive) | 57.9 µM (inactive) | 56.6 µM (inactive) | > 100 µM (inactive) | > 100 µM (inactive) | 77.1 µM (inactive) | > 100 µM (inactive) |  |  |  | 23.6 µM (inactive) | > 100 µM (inactive)
C#CCC1(C(=O)OCC)C(=O)c2ccccc2N(C)C1=O (centres undefined) |  | > 100 µM (inactive) | > 100 | > 100 µM (inactive) | 91.8 µM (inactive) | 62.5 µM (inactive) | 12.1 µM (inactive) | > 100 µM (inactive) |  | 68.4 µM (inactive) | > 100 µM (inactive) | > 100 µM (inactive) | > 100 µM (inactive) | > 100 µM (inactive) | 26.7 µM (inactive) |  |  |  |  | 58.7 µM (inactive)
